How the values were obtained:
3rd/4th instar larvae = test: Duration of protection from larvae, Method 1: daily addition of new larval cohorts to treated beakers (Example No. 4); assay type: in vivo
Procedure: Method 1: Clean, glass 600 mL beakers were set up as test containers (such that the surface area of water to be treated was 54 cm^2), and were treated with 1 mL of 3% nootkatone in ethanol (v/v), or 1 mL of ethanol alone, as in Example No. 1, to achieve a final concentration of 0.03% nootkatone (v/v). After 24 hours, 100% of larvae were dead in the treated beakers, but 100% were alive in the control beakers, as in Example No. 1. An additional cohort of 25 larvae was added to each treatment beaker in the smallest practical volume of additional water, estimated at 1 mL per beaker. After an additional 24 hours, total live and dead larvae were counted and recorded. Testing continued by addition of new larval cohorts (25 per beaker, per day) for additional 24 hour periods until either there were no available 3rd/4th instar larvae, or until the rate of larval killing decreased.
In two replicate experiments, larvae cohorts were added to test containers in the presence of 0.03% nootkatone, 1% ethanol, starting 24 to 72 hours after addition of nootkatone and ethanol to the test containers (see FIGS. 5 and 6). In the second experiment, additional additional larval replicates were added simultaneously to test containers in the presence of 0.01% nootkatone, 1% ethanol (see FIG. 6).
In a separate experiment with the same experimental set-up, test containers were inoculated with nootkatone in ethanol 48 hours prior to addition of larvae (see FIG. 7). In these experiments, 100% of larvae were killed within 24 hours up to a week after nootkatone treatment. One week after addition of nootkatone, larval mortality was still at 94%.

Aedes aegypti pupae = test: Efficacy against mosquito pupae (Example No. 6); assay type: in vivo; conditions: for pupae died within 24 hours: 0.03% nootkatone/1% ethanol
Procedure: Eggs of Aedes aegypti were purchased from a commercial supplier. Eggs were hatched in sterile MilliQ water and fed with finely ground Tetramin® fish food until they developed into pupae.
Clean, glass 600 mL beakers were washed and thoroughly rinsed prior to use as test containers. On testing days, pupae were removed from dishes used to grow larvae. Replicates of 10 pupae each were randomly assigned to glass beakers in a volume of 100 mL of sterile MilliQ water, and a treatment of nootkatone (see “Treatments” below), or a control treatment of ethanol alone, was added. Three control replicates and 4 treated replicates were tested on one day, and on a second day, two control replicates and four treated replicates were tested. The beakers were then covered lightly with Kimwipes, secured by rubber bands to prevent escape of adults. The beakers were observed after 24 hours, and the numbers of live pupae, dead pupae, live adults, and dead adults were recorded.
An aliquot of 1 mL of a 3% solution (w/v) of nootkatone in 100% ethanol was added to treatment beakers to obtain a final concentration of 0.03% nootkatone/1% ethanol. Control beakers received 1 mL of 100% ethanol, to obtain a final concentration of 1% ethanol.

SMILES: C=C(C)[C@@H]1CCC2=CC(=O)C[C@@H](C)[C@]2(C)C1 [Nootkatone, nootkatone]
- mortality rate (3rd/4th instar larvae; 0.01% nootkatone (v/v), 72 hours after application, FIG. 6): about 10%
- mortality (3rd/4th instar larvae; 0.01% nootkatone (v/v), larvae added after application, through 48 hours, FIG. 6): 100%
- larvae dead (3rd/4th instar larvae; 0.03% nootkatone (v/v), after 24 hours, first cohort): 100%
- mortality (3rd/4th instar larvae; 0.03% nootkatone (v/v), larvae added 0, 24, 48, and 78 hours after application, FIG. 5): 100%
- mortality (3rd/4th instar larvae; 0.03% nootkatone (v/v), larvae added after application, through 48 hours, FIG. 6): 100%
- mortality (3rd/4th instar larvae; 0.03% nootkatone (v/v), through 72 hours after application, FIG. 6): 100%
- mortality rates (3rd/4th instar larvae; 0.03% nootkatone (v/v), through one week of treatment, FIG. 7): greater than 90%
- larvae killed within 24 hours (3rd/4th instar larvae; 0.03% nootkatone, containers inoculated 48 hours prior to larvae, up to a week after nootkatone treatment, FIG. 7): 100%
- larval mortality (3rd/4th instar larvae; 0.03% nootkatone, one week after addition of nootkatone, FIG. 7): 94%
- pupae died within 24 hours, average (Aedes aegypti pupae; 0.03% nootkatone/1% ethanol in water, average of two test days, controls 3%, FIG. 12): 94%
- pupae died within 24 hours (Aedes aegypti pupae; one experiment): 93%
- pupae died within 24 hours (Aedes aegypti pupae; second day of testing): 95%

Source: US11154057B2, “Use of nootkatone to treat mosquito infestations” (EVOLVA SA, priority 2016, dated 2021)
